For orientation: IC50 means the concentration needed to halve the response being measured.

The source of these data is patent US20250011311A1, “AMIDO HETEROAROMATIC COMPOUNDS” (AstraZeneca AB, priority 2022, published 2025).

For data set [1], the target named is recombinant 17bHSD13 (N2-K300) (Homo sapiens (Human), UniProt Q7Z5P4). As to the kind of experiment: In Vitro 17bHSD13 Enzyme Assay. The data set is classed as biochemical. The settings on record: 80 nM 17bHSD13, 0.5 mM NAD, 20 μM Estradiol, 2.5 h; estradiol to estrone by LC-MS/MS. In short, it runs like this: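 Human 17bHSD13 (N2-K300, 80 nM) with 0.5 mM NAD, 20 μM estradiol and varied compound in 50 mM Tris-Cl pH 7.4, 5 mM EDTA, 0.01% DDM. Estrone/(estrone+estradiol) ratio read by LC-MS/MS (APCI, positive MRM). Inhibition normalised to DMSO and a known-inhibitor control; IC50 from curve fit.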

For data set [2], the target named is recombinant 17bHSD4 (M1-N311) (Homo sapiens (Human), UniProt P51659). Kind of data set: In Vitro 17bHSD4 Enzyme Assay. In kind it is biochemical. The settings on record: 40 nM 17bHSD4, 0.125 mM NAD, 15 μM Estradiol, 1.5 h; NADH fluorescence; read-out: 17HSD17b4 Enzyme assay IC50.
Data set [3] concerns the target over expressed HSD17β13 in HEK293S cells (Homo sapiens (Human), UniProt Q7Z5P4). Kind of data set: In Vitro 17bHSD13 Cell Assay. The settings on record: HEK293S cells over expressing HSD17β13; estradiol to estrone conversion, 18 h, LC-MS/MS; read-out: 17bHSD1713 Cell assay IC50. The data set is classed as cell-based. In outline:
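HEK293S cells overexpressing HSD17β13 convert estradiol to estrone; product read by LC-MS/MS (APCI, positive MRM) as AUC ratio estrone/(estrone+estradiol). Effect normalised between DMSO and maximal inhibition by a known inhibitor control; IC50 from curve fit.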

Data set [4] concerns human hepatocytes. Kind of data set: Assay A: Metabolic Stability in Human Hepatocytes. The following applies: cryopreserved human hepatocytes, 10^6 viable cells/mL, 1 μM compound, 37° C. In kind it is in vitro ADME. In outline: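 Cryopreserved hepatocytes (10^6 viable cells/mL) at 37° C with 1 μM test compound, sampled 0.5–120 min and quenched in MeCN. Parent measured by LC-MS/MS; CLint (μL/min/10^6 cells) from the slope of ln(parent concentration) vs time.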

For data set [5], the target named is CYP2C9 (Homo sapiens (Human), UniProt P11712). As to the kind of experiment: Assay B: Cytochrome P450 Inhibition 2C9.
Sequence of CYP2C9 (P11712 whole entry): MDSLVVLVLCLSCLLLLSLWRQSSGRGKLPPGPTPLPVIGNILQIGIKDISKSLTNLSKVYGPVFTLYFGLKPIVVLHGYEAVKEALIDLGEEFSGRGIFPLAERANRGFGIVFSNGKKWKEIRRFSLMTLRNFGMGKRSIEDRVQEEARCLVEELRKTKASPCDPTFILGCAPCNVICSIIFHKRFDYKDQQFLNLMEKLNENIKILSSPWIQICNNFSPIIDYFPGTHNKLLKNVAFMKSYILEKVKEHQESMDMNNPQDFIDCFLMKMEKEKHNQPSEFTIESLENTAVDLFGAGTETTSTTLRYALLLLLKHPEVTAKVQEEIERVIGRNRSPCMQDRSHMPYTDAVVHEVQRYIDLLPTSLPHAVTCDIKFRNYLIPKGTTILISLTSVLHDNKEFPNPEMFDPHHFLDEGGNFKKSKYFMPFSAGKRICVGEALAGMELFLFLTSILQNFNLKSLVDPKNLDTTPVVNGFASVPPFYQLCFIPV
Protocol: A fluorescence-based method in 96-well format was used to determine the inhibition of 2C9 (Crespi, C. L. et al., Microtiter plate assays for inhibition of human, drug-metabolizing cytochromes P450. Anal Biochem 1997, 248 (1), 188-190. DOI: 10.1006/abio.1997.2145, which is incorporated herein by reference). The recombinant human enzymes used were prepared in house, except for CYP2D6 (CYPEX LTD, Dundee, UK). Different coumarin substrates, biotransformed into fluorescent metabolites, were used as probes for each individual CYP. A fluorescence plate reader (SPECTRAMAX GEMINIXS, MOLECULAR DEVICES, Sunnyvale, California, USA) was used to measure the levels of metabolites formed. A dilution series of the test substrates was prepared at eight different concentrations. For each CYP, a mixture of the enzyme, corresponding coumarin substrate, potassium phosphate buffer pH 7.4 and water (concentrations and volumes were CYP-dependent) were added to each well in a black 96-well plate. The test substrates at different concentrations were added. After 10 min pre-incubation, the co-factor NADPH was added to initiate the reaction. After 20-50 min (CYP and substrate-dependent) the reaction was terminated by addition of trisbase/MeCN (20:80). The plates were transferred to the fluorescence plate reader where the wavelengths were set individually for the different coumarin substrates and their respective fluorescent metabolite. The responses were exported to Excel where the IC50 curves were plotted (percent inhibition versus concentration) and IC50 values calculated for each test substrate and enzyme using XL-fit.

Sequence of recombinant 17bHSD4 (M1-N311) (P51659 1-311): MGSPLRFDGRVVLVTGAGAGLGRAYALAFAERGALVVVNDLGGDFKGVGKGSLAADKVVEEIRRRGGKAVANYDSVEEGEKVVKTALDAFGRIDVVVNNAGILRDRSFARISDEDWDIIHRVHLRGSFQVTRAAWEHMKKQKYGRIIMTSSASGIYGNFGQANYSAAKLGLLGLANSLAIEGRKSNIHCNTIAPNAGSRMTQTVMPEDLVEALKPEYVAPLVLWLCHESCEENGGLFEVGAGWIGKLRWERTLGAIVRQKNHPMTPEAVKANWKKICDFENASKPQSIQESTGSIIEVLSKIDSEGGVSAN
Sequence of over expressed HSD17β13 in HEK293S cells (Q7Z5P4 20-300): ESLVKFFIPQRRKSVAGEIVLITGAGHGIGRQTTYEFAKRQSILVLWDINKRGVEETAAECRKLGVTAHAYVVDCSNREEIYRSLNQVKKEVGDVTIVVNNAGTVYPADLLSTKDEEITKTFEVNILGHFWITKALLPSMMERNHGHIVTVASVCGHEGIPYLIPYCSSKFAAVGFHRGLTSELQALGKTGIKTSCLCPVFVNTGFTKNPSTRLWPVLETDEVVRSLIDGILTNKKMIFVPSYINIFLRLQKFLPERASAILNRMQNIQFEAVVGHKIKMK
Sequence of recombinant 17bHSD13 (N2-K300) (Q7Z5P4 2-300): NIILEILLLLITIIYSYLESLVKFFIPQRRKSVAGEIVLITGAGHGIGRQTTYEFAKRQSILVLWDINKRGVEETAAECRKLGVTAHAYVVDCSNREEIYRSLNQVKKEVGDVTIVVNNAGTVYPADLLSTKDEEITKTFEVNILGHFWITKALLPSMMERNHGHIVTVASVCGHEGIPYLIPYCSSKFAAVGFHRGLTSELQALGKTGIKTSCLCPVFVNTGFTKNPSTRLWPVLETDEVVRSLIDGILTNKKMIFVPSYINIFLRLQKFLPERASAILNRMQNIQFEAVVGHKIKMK

Regarding `CC[C@H]1CN(C(=O)c2noc(-c3cc(F)c(F)c(O)c3F)n2)C[C@@H](C)O1` (racemic) [Example 121, rac-((2R,6S)-2-Ethyl-6-methylmorpholino)(5-(2,4,5-trifluoro-3-hydroxyphenyl)-1,2,4-oxadiazol-3-yl)methanone], the IC50 in data set [1] was 130 nM; in data set [2], above 50 µM; in data set [3], 20 nM; in data set [5] it was 7700 nM. Further, the “Assay A: Human Heps Met Clint GMean CLint (μl/min/1E6)” value in data set [4] stood at 6.8 μl/min/1E6.

Regarding `CC(C)[C@H]1CN(C(=O)c2noc(-c3cc(F)c(F)c(O)c3F)n2)C[C@@H](C)O1` (racemic) [Example 122, rac-((2R,6S)-2-isopropyl-6-methylmorpholino)(5-(2,4,5-trifluoro-3-hydroxyphenyl)-1,2,4-oxadiazol-3-yl)methanone], the IC50 was 85 nM in data set [1], above 50 µM in data set [2], 40 nM in data set [3] and 4400 nM in data set [5]. Moreover, in data set [4], the “Assay A: Human Heps Met Clint GMean CLint (μl/min/1E6)” value is 8.8 μl/min/1E6.

For `CC1CN(C(=O)c2noc(-c3cc(F)c(F)c(O)c3F)n2)CC2(CCC2)O1` (racemic) [Example 123, (6-Methyl-5-oxa-8-azaspiro[3.5]nonan-8-yl)(5-(2,4,5-trifluoro-3-hydroxyphenyl)-1,2,4-oxadiazol-3-yl)methanone], the IC50 in data set [1] is 77 nM; in data set [2], 32 µM; in data set [3], 80 nM; in data set [5], 9300 nM. For the same compound, in data set [4], the “Assay A: Human Heps Met Clint GMean CLint (μl/min/1E6)” value is 8.3 μl/min/1E6.

Turning to `O=C(c1noc(-c2cc(F)c(F)c(O)c2F)n1)N1CC(Oc2ccccc2)C1` [Example 2, (3-Phenoxyazetidin-1-yl)(5-(2,4,5-trifluoro-3-hydroxyphenyl)-1,2,4-oxadiazol-3-yl)methanone], the IC50 in data set [1] turned out to be 75 nM; in data set [2], 6.7 µM; in data set [3], 1610 nM; in data set [5], 1800 nM. In data set [4], the “Assay A: Human Heps Met Clint GMean CLint (μl/min/1E6)” value is recorded as 14.7 μl/min/1E6.

For `C[C@@H]1CN(C(=O)c2ccc(-c3cc(F)c(F)c(O)c3F)s2)C[C@H](C)O1` [Example 3, ((2R,6S)-2,6-Dimethylmorpholino)(5-(2,4,5-trifluoro-3-hydroxyphenyl)thiophen-2-yl)methanone], the IC50 in data set [1] amounted to 36 nM; in data set [2], 31.5 µM; in data set [3], 30 nM; in data set [5], 1600 nM.

On to `COc1ccccc1C1CCN(C(=O)c2noc(-c3cc(F)c(F)c(O)c3F)n2)C1` (stereo not shown) [Example 4, (3-(2-Methoxyphenyl)pyrrolidin-1-yl)(5-(2,4,5-trifluoro-3-hydroxyphenyl)-1,2,4-oxadiazol-3-yl)methanone], for which the half-maximal inhibitory concentration (IC50) in data set [1] worked out at 36 nM; in data set [2], 6.1 µM; in data set [3] it was 80 nM; in data set [5], 600 nM. The “Assay A: Human Heps Met Clint GMean CLint (μl/min/1E6)” value in data set [4] amounted to 47.4 μl/min/1E6.

With `O=C(c1noc(-c2cc(C(F)(F)F)[nH]c(=O)c2)n1)N1CCC(c2ccccc2)C1` (stereo not shown) [Example 9, 4-(3-(3-Phenylpyrrolidine-1-carbonyl)-1,2,4-oxadiazol-5-yl)-6-(trifluoromethyl)pyridin-2(1H)-one], the IC50 is 422 nM in data set [1], above 50 µM in data set [2], 5550 nM in data set [3] and 5700 nM in data set [5]. In addition, the “Assay A: Human Heps Met Clint GMean CLint (μl/min/1E6)” value in data set [4] was 262.2 μl/min/1E6.

With `O=C(c1noc(-c2ccc(F)c(O)c2)n1)N1CC[C@H](c2ccccc2)C1` [Example 11, (R)-(5-(4-Fluoro-3-hydroxyphenyl)-1,2,4-oxadiazol-3-yl)(3-phenylpyrrolidin-1-yl)methanone], the IC50 in data set [1] is 69 nM; in data set [2], above 50 µM; in data set [3], 800 nM; in data set [5], 12800 nM. In addition, the “Assay A: Human Heps Met Clint GMean CLint (μl/min/1E6)” value in data set [4] is recorded as above 300 μl/min/1E6.

For the compound `N#Cc1c(C(=O)N2CCN(CCCOc3ccc(F)cc3)CC2)noc1-c1cc(F)c(F)c(O)c1F` [Example 14, 3-(4-(3-(4-Fluorophenoxy)propyl)piperazine-1-carbonyl)-5-(2,4,5-trifluoro-3-hydroxyphenyl)isoxazole-4-carbonitrile], the IC50 was determined as 126 nM in data set [1], 41.4 µM in data set [2], 260 nM in data set [3] and 1100 nM in data set [5]. Further, the “Assay A: Human Heps Met Clint GMean CLint (μl/min/1E6)” value in data set [4] is 14.3 μl/min/1E6.

As for `COc1cccc(N2CCN(C(=O)c3noc(-c4cc(F)c(F)c(O)c4F)c3C#N)CC2)c1` [Example 16, 3-(4-(3-Methoxyphenyl)piperazine-1-carbonyl)-5-(2,4,5-trifluoro-3-hydroxyphenyl)isoxazole-4-carbonitrile], the IC50 in data set [1] was found to be 137 nM; in data set [2] it was 15.4 µM; in data set [3] it was 4560 nM; in data set [5] it was 800 nM. For the same compound, the “Assay A: Human Heps Met Clint GMean CLint (μl/min/1E6)” value in data set [4] is given as 56.8 μl/min/1E6.

For `N#Cc1c(C(=O)N2Cc3ccc(F)cc3C2)noc1-c1cc(F)c(F)c(O)c1F` [Example 18, 3-(5-Fluoroisoindoline-2-carbonyl)-5-(2,4,5-trifluoro-3-hydroxyphenyl)isoxazole-4-carbonitrile], the half-inhibitory concentration (IC50) in data set [1] turned out to be 80 nM; in data set [2], 17.8 µM; in data set [3], 790 nM; in data set [5], 400 nM. Further, the “Assay A: Human Heps Met Clint GMean CLint (μl/min/1E6)” value in data set [4] amounted to 17.2 μl/min/1E6.

Consider `C[C@@H]1CN(C(=O)c2noc(-c3cc(F)c(F)c(O)c3F)c2C#N)C[C@H](C)O1` [Example 22, 3-((2R,6S)-2,6-Dimethylmorpholine-4-carbonyl)-5-(2,4,5-trifluoro-3-hydroxyphenyl)isoxazole-4-carbonitrile], for which the concentration for half-maximal inhibition (IC50) in data set [1] is 532 nM; in data set [2], above 50 µM; in data set [3], 1120 nM; in data set [5], 1200 nM. The “Assay A: Human Heps Met Clint GMean CLint (μl/min/1E6)” value in data set [4] worked out at 6.3 μl/min/1E6.

As for `N#Cc1ccc2c(c1)CN(C(=O)c1noc(-c3cc(F)c(F)c(O)c3F)c1C#N)CC2` [Example 29, 3-(7-Cyano-1,2,3,4-tetrahydroisoquinoline-2-carbonyl)-5-(2,4,5-trifluoro-3-hydroxyphenyl)isoxazole-4-carbonitrile], the IC50 in data set [1] is 157 nM; in data set [2], 17.6 µM; in data set [3], 440 nM; in data set [5], 200 nM. In data set [4], the “Assay A: Human Heps Met Clint GMean CLint (μl/min/1E6)” value turned out to be 16.9 μl/min/1E6.

Regarding `N#Cc1cccc2c1CCN(C(=O)c1noc(-c3c(F)c(O)c(F)c(F)c3Br)n1)C2` [Example 30, 2-(5-(2-Bromo-3,4,6-trifluoro-5-hydroxyphenyl)-1,2,4-oxadiazole-3-carbonyl)-1,2,3,4-tetrahydroisoquinoline-5-carbonitrile], the IC50 in data set [1] came out at 61 nM; in data set [2], 17.2 µM; in data set [3] it was 2520 nM; in data set [5] it was 3900 nM. In addition, in data set [4], the “Assay A: Human Heps Met Clint GMean CLint (μl/min/1E6)” value is given as 15.6 μl/min/1E6.

For `N#Cc1ccc2c(c1)CCN(C(=O)c1noc(-c3cc(F)c(F)c(O)c3F)n1)C2` [Example 31, 2-(5-(2,4,5-Trifluoro-3-hydroxyphenyl)-1,2,4-oxadiazole-3-carbonyl)-1,2,3,4-tetrahydroisoquinoline-6-carbonitrile], the IC50 was 165 nM in data set [1], 11.5 µM in data set [2], 1060 nM in data set [3] and 5000 nM in data set [5]. The “Assay A: Human Heps Met Clint GMean CLint (μl/min/1E6)” value in data set [4] is on record as 12.6 μl/min/1E6.

Consider `CC1(C)CN(C(=O)c2noc(-c3cc(F)c(F)c(O)c3F)n2)CC(C)(C)O1` [Example 32, (2,2,6,6-Tetramethylmorpholino)(5-(2,4,5-trifluoro-3-hydroxyphenyl)-1,2,4-oxadiazol-3-yl)methanone], for which the IC50 is 159 nM in data set [1], above 50 µM in data set [2], 300 nM in data set [3] and 8300 nM in data set [5]. The “Assay A: Human Heps Met Clint GMean CLint (μl/min/1E6)” value in data set [4] is reported as 4.1 μl/min/1E6.

`O=C(c1ccc(-c2cc(F)c(F)c(O)c2F)s1)N1CC[C@H](c2ccccc2)C1` [Example 33, (R)-(3-Phenylpyrrolidin-1-yl)(5-(2,4,5-trifluoro-3-hydroxyphenyl)thiophen-2-yl)methanone]: the IC50 was found to be 34 nM in data set [1], 8.5 µM in data set [2], 1210 nM in data set [3] and 200 nM in data set [5]. Moreover, the “Assay A: Human Heps Met Clint GMean CLint (μl/min/1E6)” value in data set [4] stood at 124.3 μl/min/1E6.

As to `C[C@@H]1C[C@H](C)CN(C(=O)c2nc(-c3cc(F)c(F)c(O)c3F)no2)C1` [Example 111, ((3R,5S)-3,5-Dimethylpiperidin-1-yl)(3-(2,4,5-trifluoro-3-hydroxyphenyl)-1,2,4-oxadiazol-5-yl)methanone], the IC50 was 93 nM in data set [1], above 50 µM in data set [2], 100 nM in data set [3] and 4900 nM in data set [5].
